From US9822130B2, “Triazolo-pyrazinyl derivatives useful as soluble guanylate cyclase activators” (Merck Sharp & Dohme Corp., priority 2014, dated 2017) come the findings set out here.

Molecules are shown by their SMILES.

Data set [1] concerns the target T1, sGC α1/β1 heterodimer stably expressed in CHO-K1 cell line (CHO-K1/sGC) (Homo sapiens, UniProt Q02108+Q02153).
T1 construct: expressed in transfected cells
T1 sequence (Q02108 1-690): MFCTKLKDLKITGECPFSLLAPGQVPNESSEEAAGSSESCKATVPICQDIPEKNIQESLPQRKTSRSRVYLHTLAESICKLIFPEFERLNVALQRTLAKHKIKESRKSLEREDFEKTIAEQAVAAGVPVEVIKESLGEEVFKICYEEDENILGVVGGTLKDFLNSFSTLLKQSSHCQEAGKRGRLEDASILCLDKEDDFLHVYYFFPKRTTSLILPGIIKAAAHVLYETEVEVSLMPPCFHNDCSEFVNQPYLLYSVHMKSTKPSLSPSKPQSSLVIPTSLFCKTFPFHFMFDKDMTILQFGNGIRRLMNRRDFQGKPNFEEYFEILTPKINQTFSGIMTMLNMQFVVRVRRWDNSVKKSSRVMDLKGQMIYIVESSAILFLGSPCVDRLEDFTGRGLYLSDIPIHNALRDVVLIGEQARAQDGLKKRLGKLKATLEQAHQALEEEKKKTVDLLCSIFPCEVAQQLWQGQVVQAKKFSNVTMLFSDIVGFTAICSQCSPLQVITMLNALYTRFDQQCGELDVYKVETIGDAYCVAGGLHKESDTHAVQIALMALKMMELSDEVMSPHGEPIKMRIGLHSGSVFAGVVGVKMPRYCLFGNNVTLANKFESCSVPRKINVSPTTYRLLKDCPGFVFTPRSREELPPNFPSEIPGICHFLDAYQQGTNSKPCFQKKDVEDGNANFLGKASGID
T1 sequence (Q02153 1-619): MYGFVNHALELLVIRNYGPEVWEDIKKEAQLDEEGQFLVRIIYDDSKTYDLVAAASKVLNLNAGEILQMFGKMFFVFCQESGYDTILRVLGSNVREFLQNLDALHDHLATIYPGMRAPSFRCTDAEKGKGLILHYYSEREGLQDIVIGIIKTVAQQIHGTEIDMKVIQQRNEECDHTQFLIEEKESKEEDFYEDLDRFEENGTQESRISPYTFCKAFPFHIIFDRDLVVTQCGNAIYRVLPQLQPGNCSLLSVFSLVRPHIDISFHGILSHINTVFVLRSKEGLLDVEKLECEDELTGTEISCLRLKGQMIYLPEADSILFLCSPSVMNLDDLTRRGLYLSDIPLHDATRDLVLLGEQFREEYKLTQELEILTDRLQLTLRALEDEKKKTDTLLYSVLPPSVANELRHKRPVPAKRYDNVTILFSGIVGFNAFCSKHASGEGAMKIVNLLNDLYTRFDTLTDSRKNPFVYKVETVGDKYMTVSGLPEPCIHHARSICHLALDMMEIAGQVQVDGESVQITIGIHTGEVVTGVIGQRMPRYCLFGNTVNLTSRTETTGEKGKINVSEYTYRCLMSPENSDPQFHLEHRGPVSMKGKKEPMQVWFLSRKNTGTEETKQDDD
The data set can be described thus: Cell-based sGC Functional Assay (CASA Assay), cGMP generation. To be noted: CHO-K1/sGC cells, 1 hr at 37° C., cGMP by HTRF, 4P fit; presence or absence of 1 μM DETA-NO not given; read-out: IP (nM) (inflection point). The procedure, abridged: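 CHO-K1 cells stably expressing human sGC α1/β1 (4×10^5/mL, 0.5 mM IBMX) were treated with compounds (2.5% DMSO final) ± 1 μM DETA-NO for 1 hr at 37° C. Intracellular cGMP measured by HTRF. Activity expressed as % of Compound A maximal cGMP; IP and maximum fold induction from 4P fit.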
For orientation: Time-resolved FRET reads energy transfer from a long-lived donor to a nearby acceptor.

Data set [2] can be described thus: IV Cassette PK Assay in rats. Format: in vivo. To be noted: rat, male Wistar-Han rats, plasma, LC-MS/MS, read-out: Cassette PK T1/2 (converted). As for the experimental part:
The results were obtained using the following the procedure:
Adult male Wistar-Han rats were fasted overnight and administered a cassette IV dose of mixture of several compounds via a previously implanted catheter in the femoral vein. Animals were allowed access to food 4 h post dose. Blood samples were collected into EDTA-containing tubes at the following time points: 0.03, 0.13, 0.25, 0.5, 1, 2, 4, 8 h post-dose. Blood samples were stored on ice until plasma was harvested by centrifugation. Plasma was transferred to a 96-well plate and stored at −20° C. until analysis. Concentrations of each compound in rat plasma were determined by LC-MS/MS following protein precipitation.

With `C[C@@]1(c2ccc(F)cc2)C(=O)Nc2nc(-c3cn4ncnc4c(CCC(F)(F)C(F)(F)F)n3)nc(N)c21` [Example 1A, (S)-4-Amino-5-(4-fluorophenyl)-5-methyl-2-(8-(3,3,4,4,4-pentafluorobutyl)-[1,2,4]triazolo[1,5-a]pyrazin-6-yl)-5H-pyrrolo[2,3-d]pyrimidin-6(7H)-one], the EC50 in data set [1] came to 187 nM. In addition, the half-life in data set [2] was 3.35 h.
With `CC1(c2ccc(F)cn2)C(=O)Nc2nc(-c3cn4ncnc4c(CCC(F)(F)C(F)(F)F)n3)nc(N)c21` (centres unmarked) [Example 4B, 4-amino-5-(5-fluoropyridin-2-yl)-5-methyl-2-(8-(3,3,4,4,4-pentafluorobutyl)-[1,2,4]triazolo[1,5-a]pyrazin-6-yl)-5H-pyrrolo[2,3-d]pyrimidin-6(7H)-one], in data set [1], the EC50 worked out at 117 nM. Moreover, the half-life in data set [2] was 2.97 h.
With `Nc1nc(-c2cn3ncnc3c(CCCC(F)(F)F)n2)nc2c1C(c1ccc(C(F)F)cn1)(C1CC1)C(=O)N2` (racemic) [Example 44B, 4-amino-5-cyclopropyl-5-(5-(difluoromethyl)pyridin-2-yl)-2-(8-(4,4,4-trifluorobutyl)-[1,2,4]triazolo[1,5-a]pyrazin-6-yl)-5H-pyrrolo[2,3-d]pyrimidin-6(7H)-one], the EC50 in data set [1] came to 111 nM. The half-life in data set [2] is 3.94 h.
Turning to `CC1(c2ccc(F)cc2)C(=O)Nc2nc(-c3cn4ccnc4c(CCC(F)(F)C(F)(F)F)n3)nc(N)c21` (centres unmarked) [reference compound], in data set [2], the half-life is 1.04 h.
Regarding `CC1(c2ccc(C(F)(F)F)cc2)C(=O)Nc2nc(-c3cn4ncnc4c(CCCC(F)(F)F)n3)nc(N)c21` (centres unmarked) [Example 24B, 4-amino-5-methyl-2-(8-(4,4,4-trifluorobutyl)-[1,2,4]triazolo[1,5-a]pyrazin-6-yl)-5-(4-(trifluoromethyl)phenyl)-5H-pyrrolo[2,3-d]pyrimidin-6(7H)-one], in data set [1], the EC50 stood at 27.1 nM.
For `CCCc1nc(-c2nc(N)c3c(n2)NC(=O)[C@@]3(C)c2ccc(F)cc2)cn2nc(C)nc12` [Example 91A, (S)-4-amino-5-(4-fluorophenyl)-5-methyl-2-(2-methyl-8-propyl-[1,2,4]triazolo[1,5-a]pyrazin-6-yl)-5,7-dihydro-6H-pyrrolo[2,3-d]pyrimidin-6-one], the EC50 in data set [1] was 668 nM.
With `CC1(c2ccc(Cl)c(F)c2)C(=O)Nc2nc(-c3cn4ncnc4c(CCCC(F)(F)F)n3)nc(O)c21` (centres unmarked) [Example 138B, 5-(4-chloro-3-fluorophenyl)-4-hydroxy-5-methyl-2-(8-(4,4,4-trifluorobutyl)-[1,2,4]triazolo[1,5-a]pyrazin-6-yl)-5H-pyrrolo[2,3-d]pyrimidin-6(7H)-one], the EC50 in data set [1] was determined as 344 nM.
As to `CCCc1nc(-c2nc(N)c3c(n2)NC(=O)C3(C)c2ccc(F)cn2)cn2ncnc12` (centres unmarked) [Example 54B, 4-amino-5-(5-fluoropyridin-2-yl)-5-methyl-2-(8-propyl-[1,2,4]triazolo[1,5-a]pyrazin-6-yl)-5H-pyrrolo[2,3-d]pyrimidin-6(7H)-one], the EC50 in data set [1] is 318 nM.
Same read-out and setting: then `CC1(c2cnc(C(F)(F)F)cn2)C(=O)Nc2nc(-c3cn4ncnc4c(CCCC(F)(F)F)n3)nc(N)c21` (centres unmarked) [Example 50B, 4-amino-5-methyl-2-(8-(4,4,4-trifluorobutyl)-[1,2,4]triazolo[1,5-a]pyrazin-6-yl)-5-(5-(trifluoromethyl)pyrazin-2-yl)-5H-pyrrolo[2,3-d]pyrimidin-6(7H)-one], with 150 nM.
Same read-out and setting: as for `CC1(c2ccc(F)c(F)c2)C(=O)Nc2nc(-c3cn4ncnc4c(CCC(F)(F)C(F)(F)F)n3)nc(O)c21` (centres unmarked) [Example 169B, 5-(3,4-Difluorophenyl)-4-hydroxy-5-methyl-2-(8-(3,3,4,4,4-pentafluorobutyl)-[1,2,4]triazolo[1,5-a]pyrazin-6-yl)-5,7-dihydro-6H-pyrrolo[2,3-d]pyrimidin-6-one], the figure is 111 nM; as for `CC1(c2ccccn2)C(=O)Nc2nc(-c3cn4ncnc4c(CCCC(F)(F)F)n3)nc(N)c21` (centres unmarked) [Example 36B, 4-amino-5-methyl-5-(pyridin-2-yl)-2-(8-(4,4,4-trifluorobutyl)-[1,2,4]triazolo[1,5-a]pyrazin-6-yl)-5H-pyrrolo[2,3-d]pyrimidin-6(7H)-one], 56.5 nM.
